Laboratory results taken from patent US20260327242A1, “Platform and Scaffold for FAP Targeting Agents” (Erasmus University Medical Center Rotterdam, priority 2022, published 2026).

Experiments:
U-87 cells = assay: Cytotoxicity assay in FAP+ U-87 cells (resazurin); type: cell-based; conditions: FAP+ U-87 cells, single dose of eFAP-18 (1 μM) compared with the parent drug DM1
Procedure: In 96-well plates, U-87 cells (3×10^3) were seeded in each well and incubated at 37° C. and 5% CO2 for 24 h. The medium was removed and the wells were washed once with PBS. The cytotoxic drug (positive control) or the eFAP conjugate containing the drug were prepared at various concentrations (i.e., 1, 10, 100, 1000 nM) in DMEM culture medium, supplemented with 2 mM L-glutamine, 10% FBS, 50 units/mL penicillin, and 50 μg/mL streptomycin. Medium was used as a negative control. Cells were incubated with 100 μL of the tested compounds for 1, 24, 48, and 72 h. After incubation, medium was removed and each well was washed once with PBS. Next, 100 μL of 10% resazurin solution in culture medium was added to each well and incubated for 2.5 h. Fluorescence measurements were carried out using a microplate reader at 544 nm excitation and 590 nm emission.

human FAP (hFAP) = molecular target: T1, human FAP (hFAP) (Homo sapiens, UniProt Q12884); assay: In vitro inhibition assay on human FAP (Z-GP-AMC substrate); type: biochemical; conditions: 20 μM Z-GP-AMC, 20 nM FAP, pH 7.4, room temperature
T1 sequence (Q12884 26-760 limits assumed): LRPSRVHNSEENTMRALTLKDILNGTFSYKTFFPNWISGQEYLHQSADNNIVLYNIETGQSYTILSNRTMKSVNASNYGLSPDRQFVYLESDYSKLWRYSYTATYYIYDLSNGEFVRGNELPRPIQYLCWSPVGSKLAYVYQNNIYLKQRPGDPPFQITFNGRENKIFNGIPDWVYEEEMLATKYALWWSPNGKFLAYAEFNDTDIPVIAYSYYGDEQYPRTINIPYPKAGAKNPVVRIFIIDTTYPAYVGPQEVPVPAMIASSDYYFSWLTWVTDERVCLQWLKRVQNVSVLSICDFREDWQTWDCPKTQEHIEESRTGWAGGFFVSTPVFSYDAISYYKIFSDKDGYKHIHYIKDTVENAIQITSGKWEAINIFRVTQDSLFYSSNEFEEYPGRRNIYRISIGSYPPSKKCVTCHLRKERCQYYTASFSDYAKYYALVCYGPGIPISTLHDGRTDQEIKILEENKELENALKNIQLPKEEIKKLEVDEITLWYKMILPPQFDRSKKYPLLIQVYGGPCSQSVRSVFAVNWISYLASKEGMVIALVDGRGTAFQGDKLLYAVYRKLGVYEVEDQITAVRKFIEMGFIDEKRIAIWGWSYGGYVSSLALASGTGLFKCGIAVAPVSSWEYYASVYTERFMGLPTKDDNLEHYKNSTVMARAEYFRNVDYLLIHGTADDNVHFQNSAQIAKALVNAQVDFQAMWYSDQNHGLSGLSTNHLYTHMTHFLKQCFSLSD
Procedure: (§1) Enzymatic activity of human FAP (hFAP) and mouse FAP (mFAP) on the Z-GP-AMC substrate was measured at room temperature on a Hidex microplate reader by monitoring the fluorescence at an excitation wavelength of 360 nm and an emission wavelength of 465 nm. The reaction mixture contained 20 μM substrate, 20 nM FAP, assay buffer (50 mM Tris, 100 mM NaCl, 1 mM EDTA, pH 7.4) and tested compound (serial dilution from 10-6 to 10^−12) in a total volume of 50 μL.

mouse FAP (mFAP) = molecular target: T2, mouse FAP (mFAP) (Mus musculus, UniProt P97321); assay: In vitro inhibition assay on mouse FAP (Z-GP-AMC substrate); type: biochemical; conditions: 20 μM Z-GP-AMC, 20 nM FAP, pH 7.4, room temperature
T2 sequence (P97321 26-761 limits assumed): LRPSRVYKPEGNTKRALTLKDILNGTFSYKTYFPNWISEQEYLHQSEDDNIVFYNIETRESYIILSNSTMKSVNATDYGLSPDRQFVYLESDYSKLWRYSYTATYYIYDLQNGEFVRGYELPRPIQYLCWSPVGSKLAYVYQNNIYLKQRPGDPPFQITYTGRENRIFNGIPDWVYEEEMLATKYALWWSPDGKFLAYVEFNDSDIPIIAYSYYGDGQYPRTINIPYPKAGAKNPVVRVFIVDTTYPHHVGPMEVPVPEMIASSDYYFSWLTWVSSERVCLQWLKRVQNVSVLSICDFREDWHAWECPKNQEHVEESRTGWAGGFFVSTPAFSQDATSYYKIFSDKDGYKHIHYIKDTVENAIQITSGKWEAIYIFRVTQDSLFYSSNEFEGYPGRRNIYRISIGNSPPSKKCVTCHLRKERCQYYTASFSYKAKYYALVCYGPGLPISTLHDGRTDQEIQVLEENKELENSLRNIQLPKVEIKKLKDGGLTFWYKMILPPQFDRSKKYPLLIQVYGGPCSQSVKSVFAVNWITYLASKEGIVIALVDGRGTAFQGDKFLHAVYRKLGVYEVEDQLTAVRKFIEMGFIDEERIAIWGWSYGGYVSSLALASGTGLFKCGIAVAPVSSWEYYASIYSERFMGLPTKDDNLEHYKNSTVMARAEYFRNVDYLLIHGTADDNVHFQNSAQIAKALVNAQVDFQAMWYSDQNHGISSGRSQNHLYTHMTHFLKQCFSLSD
Procedure: as §1
Results with FAPI-46 obtained in the same assay is included for comparison.

Compound: COc1cc2cc(c1Cl)N(C)C(=O)C[C@H](OC(=O)[C@H](C)N(C)C(=O)CCS)[C@]1(C)O[C@H]1[C@H](C)[C@@H]1C[C@@](O)(NC(=O)O1)[C@H](OC)/C=C/C=C(\C)C2 [DM1, Mertansine, reference compound]
- cell viability (U-87 cells): 40%

Compound: N#C[C@@H]1CC(F)(F)CN1C(=O)CNC(=O)c1ccnc2c(OCCCNC(=O)CCC(C(=O)O)N3CCN(CC(=O)O)CCN(CC(=O)O)CCN(CC(=O)O)CC3)cccc12 (stereo partly drawn) [eFAP-8, 2,2′,2″-(10-(1-Carboxy-4-((3-((4-((2-((S)-2-cyano-4,4-difluoropyrrolidin-1-yl)-2-oxoethyl)carbamoyl)quinolin-8-yl)oxy)propyl)amino)-4-oxobutyl)-1,4,7,10-tetraazacyclododecane-1,4,7-triyl)triacetic acid]
- IC50 (human FAP (hFAP)): 1.5 ± 0.2 nM
- IC50 (mouse FAP (mFAP)): 1.1 ± 0.4 nM

Compound: N#C[C@@H]1CC(F)(F)CN1C(=O)CNC(=O)c1ccnc2c(OCCCNC(=O)C3CCC(CNC(=O)CN4CCN(CC(=O)O)CCN(CC(=O)O)CCN(CC(=O)O)CC4)CC3)cccc12 (stereo partly drawn) [eFAP-9, 2,2′,2″-(10-(2-(((4-((3-((4-((2-((S)-2-Cyano-4,4-difluoropyrrolidin-1-yl)-2-oxoethyl)carbamoyl)quinolin-8-yl)oxy)propyl)carbamoyl)cyclohexyl)methyl)amino)-2-oxoethyl)-1,4,7,10-tetraazacyclododecane-1,4,7-triyl)triacetic acid]
- IC50 (human FAP (hFAP)): 2.9 ± 0.6 nM
- IC50 (mouse FAP (mFAP)): 2.3 ± 0.3 nM

Compound: N#C[C@@H]1CC(F)(F)CN1C(=O)CNC(=O)c1ccnc2c(OCCCNC(=O)CN3CCC(NC(=O)CN4CCN(CC(=O)O)CCN(CC(=O)O)CCN(CC(=O)O)CC4)CC3)cccc12 [eFAP-10, (S)-2,2′,2″-(10-(2-((1-(2-((3-((4-((2-(2-Cyano-4,4-difluoropyrrolidin-1-yl)-2-oxoethyl)carbamoyl)quinolin-8-yl)oxy)propyl)amino)-2-oxoethyl)piperidin-4-yl)amino)-2-oxoethyl)-1,4,7,10-tetraazacyclododecane-1,4,7-triyl)triacetic acid]
- IC50 (human FAP (hFAP)): 2.4 ± 0.7 nM
- IC50 (mouse FAP (mFAP)): 2.4 ± 0.7 nM

Compound: N#C[C@@H]1CC(F)(F)CN1C(=O)CNC(=O)c1ccnc2c(OCCCNC(=O)CCSc3nnc(SCCC(=O)NCCCOc4cccc5c(C(=O)NCC(=O)N6CC(F)(F)C[C@H]6C#N)ccnc45)c4c3CCCC(OC(=O)NCCCNC(=O)CCC(C(=O)O)N3CCN(CC(=O)O)CCN(CC(=O)O)CCN(CC(=O)O)CC3)CC4)cccc12 (stereo partly drawn) [eFAP-20, 2,2′,2″-(10-(4-((3-((((1,4-bis((3-((3-((4-((2-((S)-2-cyano-4,4-difluoropyrrolidin-1-yl)-2-oxoethyl)carbamoyl)quinolin-8-yl)oxy)propyl)amino)-3-oxopropyl)thio)-5,6,7,8,9,10-hexahydrocycloocta[d]pyridazin-7-yl)oxy)carbonyl)amino)propyl)amino)-1-carboxy-4-oxobutyl)-1,4,7,10-tetraazacyclododecane-1,4,7-triyl)triacetic acid]
- IC50 (human FAP (hFAP)): 1.15 nM
- IC50 (mouse FAP (mFAP)): 1.11 nM

Compound: CC1(C)C(=CC=C2CCCC(C=CC3=[N+](CCCCS(=O)(=O)[O-])c4ccc(S(=O)(=O)O)cc4C3(C)C)=C2Oc2ccc(S(=O)(=O)O)cc2)N(CCCCCC(=O)NCC(O)CC(=O)NCC(O)CC(=O)NCCCOc2cccc3c(C(=O)NCC(=O)N4CC(F)(F)C[C@H]4C#N)ccnc23)c2ccc(S(=O)(=O)O)cc21 (stereo partly drawn) [eFAP-24, 2-((E)-2-((E)-3-(2-((E)-1-(6-((4-((4-((3-((4-((2-((S)-2-cyano-4,4-difluoropyrrolidin-1-yl)-2-oxoethyl)carbamoyl)quinolin-8-yl)oxy)propyl)amino)-2-hydroxy-4-oxobutyl)amino)-2-hydroxy-4-oxobutyl)amino)-6-oxohexyl)-3,3-dimethyl-5-sulfonatoindolin-2-ylidene)ethylidene)-2-(4-sulfonatophenoxy)cyclohex-1-en-1-yl)vinyl)-3,3-dimethyl-1-(4-sulfonatobutyl)-3H-indol-1-ium-5-sulfonate]
- IC50 (human FAP (hFAP)): 3.04 ± 0.18 nM
- IC50 (mouse FAP (mFAP)): 2.96 ± 0.15 nM

Compound: CC1(C)C(/C=C/C2=C(Oc3ccc(S(=O)(=O)O)cc3)C(=C/C=C3/N(CCCCCC(=O)NCC(O)CC(=O)NCCCOc4cccc5c(C(=O)NCC(=O)N6CC(F)(F)C[C@H]6C#N)ccnc45)c4ccc(S(=O)(=O)O)cc4C3(C)C)/CCC2)=[N+](CCCCS(=O)(=O)[O-])c2ccc(S(=O)(=O)O)cc21 (stereo partly drawn) [eFAP-27, 4-(2-((E)-2-((E)-3-(2-((E)-1-(6-((4-((3-((4-((2-((S)-2-cyano-4,4-difluoropyrrolidin-1-yl)-2-oxoethyl)carbamoyl)quinolin-8-yl)oxy)propyl)amino)-2-hydroxy-4-oxobutyl)amino)-6-oxohexyl)-3,3-dimethyl-5-sulfoindolin-2-ylidene)ethylidene)-2-(4-sulfophenoxy)cyclohex-1-en-1-yl)vinyl)-3,3-dimethyl-5-sulfo-3H-indol-1-ium-1-yl)butane-1-sulfonate]
- IC50 (human FAP (hFAP)): 4.01 ± 0.28 nM
- IC50 (mouse FAP (mFAP)): 3.72 ± 0.11 nM

Compound: N#C[C@@H]1CC(F)(F)CN1C(=O)CNC(=O)c1ccnc2c(OCCCNC(=O)CCSCC(=O)N3CN(C(=O)CSCCC(=O)NCCCOc4cccc5c(C(=O)NCC(=O)N6CC(F)(F)C[C@H]6C#N)ccnc45)CN(C(=O)Cn4nnc5c4CC[C@H]4[C@@H](CC5)[C@H]4COC(=O)NCCNC(=O)CCC(C(=O)O)N4CCN(CC(=O)O)CCN(CC(=O)O)CCN(CC(=O)O)CC4)C3)cccc12 (stereo partly shown) [eFAP-34]
- IC50 (human FAP (hFAP)): 1.8 nM

Compound: N#C[C@@H]1CC(F)(F)CN1C(=O)CNC(=O)c1ccnc2c(OCCCNC(=O)CCCCCSCC(=O)N3CN(C(=O)CSCCCCCC(=O)NCCCOc4cccc5c(C(=O)NCC(=O)N6CC(F)(F)C[C@H]6C#N)ccnc45)CN(C(=O)Cn4nnc5c4CC[C@@H]4[C@H](CC5)[C@@H]4COC(=O)NCCNC(=O)CCC(C(=O)O)N4CCN(CC(=O)O)CCN(CC(=O)O)CCN(CC(=O)O)CC4)C3)cccc12 (stereo partly shown) [eFAP-35]
- IC50 (human FAP (hFAP)): 1.7 nM

Compound: N#C[C@@H]1CC(F)(F)CN1C(=O)CNC(=O)c1ccnc2c(OCCCNC(=O)CCOCCOCCNCC(=O)N3CN(C(=O)CNCCOCCOCCC(=O)NCCCOc4cccc5c(C(=O)NCC(=O)N6CC(F)(F)C[C@H]6C#N)ccnc45)CN(C(=O)Cn4nnc5c4CC[C@H]4[C@@H](CC5)[C@H]4COC(=O)NCCNC(=O)CCC(C(=O)O)N4CCN(CC(=O)O)CCN(CC(=O)O)CCN(CC(=O)O)CC4)C3)cccc12 (stereo partly shown) [eFAP-36]
- IC50 (human FAP (hFAP)): 0.35 nM
